Data on one molecule can be found in patent US20210386674A1, “MODIFIED RELEASE TABLET FORMULATIONS CONTAINING PHOSPHODIESTERASE INHIBITOR” (UNION therapeutics A/S, priority 2019, published 2021).

SMILES strings stand for the structures.

One series in a line: Solubility of Compound A. The format is physicochemical.
Series [1] in a line: Oral absorption window in the gastrointestinal tract. The format is in vivo. To be noted: given orally; upper part of the gastrointestinal tract.

Take `O=C(Cc1c(Cl)c[n+]([O-])cc1Cl)c1ccc(OC(F)F)c2c1OC1(CCS(=O)(=O)CC1)O2` [Compound A, 2-(3,5-Dichloro-1-oxido-pyridine-4-yl)-1-(7-difluoro-methoxy-2′,3′,5′,6-tetrahydro-spiro[1,3-benzodioxole-2,4-(4H)-thiopyran-1′,1′-dioxide]-4-yl)ethanone]: the Solubility result in the series “Solubility of Compound A” is given as “poorly soluble”. In series [1], the Absorption window result was “very narrow absorption window”.
